Test system: HL-60 cells
Test: Apoptosis of HL-60 cells, DAPI staining of nuclear chromatin
Assay type: cell-based
Conditions: for Apoptic Cell Percentage: 24 hours; for Initiation of apoptosis: DAPI staining
Procedure: Morphological changes in the nuclear chromatin of HL-60 cells undergoing apoptosis were detected by staining with 4′,6-diamidino-2-phenylindole (DAPI). In brief, 0.5×10^6 to 3×10^6 cells were fixed with 4% glutaraledebyde, 0.2% Triton x-100, in PBS and incubated at room temperature for 10 min., then centrifuged at 1000×g for 10 min., resuspended in 20 μl 0.1% DAPI ethanol. Following 15 min, incubation at room temperature, at 10 μl aliquot was placed on a glass slide, and 400 cells per slide were scored for the incidence of apoptotic chromatin changes with a fluorescence microscope.

[1] = 20 μM in DMSO, two trials, result for each trial shown

Compound	Apoptic Cell Percentage [1]	Apoptic Cell Percentage (50 μM in DMSO)	Initiation of apoptosis
1,3-dihydro-4,5-dimethoxy-1-[1-(8-methoxy-2-methyl-6,7-methylenedioxy-1,2,3,4-tetrahydroisoquinoliyl)]isobenzofuran-BH3 [Compound 3]	37.28%	39%	initiate apoptosis
COc1ccc2c(c1OC)CO[C@@H]2[C@H]1c2c(cc3c(c2OC)OCO3)CCN1C [Compound 4, 1,3-dihydro-4,5-dimethoxy-1-[1-(8-methoxy-2-methyl-6,7-methylenedioxy-1,2,3,4-tetrahydroixo-quinolinyl)]isobenzofuran]	48.32%	52%	initiate apoptosis

From patent US7090853B2, “Noscapine derivatives as adjuvant compositions and methods of use thereof” (Emory University, priority 1999, dated 2006)
